Experiment [1] deals with T1, Glucocorticoid receptor (Homo sapiens, UniProt P04150).
T1 sequence (P04150 whole entry): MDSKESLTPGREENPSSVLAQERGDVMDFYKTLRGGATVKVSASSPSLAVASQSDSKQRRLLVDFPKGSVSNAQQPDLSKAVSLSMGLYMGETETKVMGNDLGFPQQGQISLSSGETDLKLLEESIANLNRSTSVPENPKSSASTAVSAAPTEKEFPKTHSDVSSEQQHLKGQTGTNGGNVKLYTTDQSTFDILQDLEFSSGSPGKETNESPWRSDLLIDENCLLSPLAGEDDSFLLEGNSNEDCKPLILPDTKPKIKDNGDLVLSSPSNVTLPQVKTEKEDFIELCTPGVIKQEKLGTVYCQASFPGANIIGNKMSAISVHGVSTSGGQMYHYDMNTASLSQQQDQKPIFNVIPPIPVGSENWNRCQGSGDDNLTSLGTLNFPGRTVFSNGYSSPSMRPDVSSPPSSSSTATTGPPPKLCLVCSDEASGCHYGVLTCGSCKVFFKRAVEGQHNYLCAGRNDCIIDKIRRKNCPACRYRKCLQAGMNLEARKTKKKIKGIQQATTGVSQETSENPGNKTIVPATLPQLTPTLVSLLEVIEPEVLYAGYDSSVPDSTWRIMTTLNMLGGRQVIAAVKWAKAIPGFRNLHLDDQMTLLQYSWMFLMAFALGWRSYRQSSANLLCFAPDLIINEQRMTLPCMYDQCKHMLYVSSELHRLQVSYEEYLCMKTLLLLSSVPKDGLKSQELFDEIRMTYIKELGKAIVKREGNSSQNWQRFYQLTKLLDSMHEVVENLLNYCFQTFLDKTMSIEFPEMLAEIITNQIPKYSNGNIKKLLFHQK

The target in experiment [2] is T1, Glucocorticoid receptor. The source holds these as a separate data set.
Description: Agonist activity at GR assessed as NF-kappaB-mediated transrepression of secreted placental alkaline phosphatase gene in human A549 cells
Experiment [3] addresses T1, Glucocorticoid receptor. The source holds these as a separate data set.

pIC50: −log10 of the molar value.

The pIC50 is the negative decadic logarithm of the IC50, by convention in mol/L. A low value points to a large IC50. Take `Cc1noc(=O)c2ccc(NC(=O)C(O)(CC3(C(C)(C)C)CCCc4ccccc43)C(F)(F)F)cc12` (stereo not given): the results for the pIC50 at Glucocorticoid receptor [1], against Glucocorticoid receptor [2] and at Glucocorticoid receptor [3] were 7.94, less than 5.00 and 6.11, respectively.

`Cc1noc(=O)c2ccc(NC(=O)C(O)(CC3CCCc4c3cccc4[N+](=O)[O-])C(F)(F)F)cc12` (stereo not given): the pIC50 is 7.90 against Glucocorticoid receptor [1] and less than 6.00 against Glucocorticoid receptor [2]. Take `Cc1cccc2c1CCCC2CC(O)(C(=O)Nc1ccc2c(=O)onc(C)c2c1)C(F)(F)F` (stereo in doubt; 19a): the values for the pIC50 at Glucocorticoid receptor [1] and against Glucocorticoid receptor [3] were 7.70 and 6.10, respectively.

With `Cc1noc(=O)c2ccc(NC(=O)C(O)(CC3CCCc4c(Br)cccc43)C(F)(F)F)cc12` (stereo in doubt; 23c), the pIC50 against Glucocorticoid receptor [1] is 8.20. The molecule `Cc1noc(=O)c2ccc(NC(=O)C(O)(CC3CCCc4c(Cl)cccc43)C(F)(F)F)cc12` (stereo in doubt; 20a) gave a pIC50 against Glucocorticoid receptor [1] of 7.80. `Cc1noc(=O)c2ccc(NC(=O)C(O)(CC3CCCc4c(Br)cccc43)C(F)(F)F)cc12` (stereo in doubt; 23f): the pIC50 against Glucocorticoid receptor [1] is 6.20; against Glucocorticoid receptor [2], less than 6.00. For `Cc1noc(=O)c2ccc(NC(=O)C(O)(CC3CCCc4cccc(F)c43)C(F)(F)F)cc12` (stereo not given) the same measures were 7.50 and less than 6.00.

With `Cc1noc(=O)c2ccc(NC(=O)C(O)(CC3(C)CCCc4ccccc43)C(F)(F)F)cc12` (stereo in doubt; 35a), the pIC50 is 6.50 against Glucocorticoid receptor [1] and less than 5.00 against Glucocorticoid receptor [2].

With `Cc1noc(=O)c2ccc(NC(=O)C(O)(CC3CCCc4cc(F)ccc43)C(F)(F)F)cc12` (stereo not given), the negative logarithm of the IC50 (pIC50) was 7.90 at Glucocorticoid receptor [1] and less than 6.00 against Glucocorticoid receptor [2].

Consider `CCC1(CC(O)(C(=O)Nc2ccc3c(=O)onc(C)c3c2)C(F)(F)F)CCOc2ccccc21` (stereo in doubt; 37), for which the pIC50 against Glucocorticoid receptor [1] is 7.78. Turning to `CCC1(CC(O)(C(=O)Nc2ccc3c(=O)onc(C)c3c2)C(F)(F)F)CCOc2ccccc21` (stereo in doubt; 38), the values for the pIC50 at Glucocorticoid receptor [1] and against Glucocorticoid receptor [2] were 7.93 and less than 5.00, respectively. Molecule `Cc1noc(=O)c2ccc(NC(=O)C(O)(CC3CCCc4c(Br)cccc43)C(F)(F)F)cc12` (stereo in doubt; 23e) showed a pIC50 at Glucocorticoid receptor [1] of 7.60. For the molecule `Cc1noc(=O)c2ccc(NC(=O)C(O)(CC3CCCc4c(C#N)cccc43)C(F)(F)F)cc12` (stereo not given), the pIC50 against Glucocorticoid receptor [1] was 7.80; against Glucocorticoid receptor [2], less than 6.00. The like results for `Cc1noc(=O)c2ccc(NC(=O)C(O)(CC3(C)CCCc4ccccc43)C(F)(F)F)cc12` (stereo in doubt; 35b) were, in that order, 8.10 and 5.90.

`COc1cccc2c1CCCC2CC(O)(C(=O)Nc1ccc2c(=O)onc(C)c2c1)C(F)(F)F` (stereo not given): the pIC50 against Glucocorticoid receptor [1] was 7.90; against Glucocorticoid receptor [2] it was less than 6.00.

With `Cc1noc(=O)c2ccc(NC(=O)C(O)(CC3CCCc4c(Br)cccc43)C(F)(F)F)cc12` (stereo in doubt; 23a), the values for the pIC50 against Glucocorticoid receptor [1] and against Glucocorticoid receptor [3] were 7.80 and 6.10, respectively. As to `Cc1noc(=O)c2ccc(NC(=O)C(O)(CC3CCCc4ccc([N+](=O)[O-])cc43)C(F)(F)F)cc12` (stereo not given), the pIC50 against Glucocorticoid receptor [1] was 7.70; against Glucocorticoid receptor [2], less than 6.00. The molecule `Cc1noc(=O)c2ccc(NC(=O)C(O)(CC3CCCc4c(Br)cccc43)C(F)(F)F)cc12` (stereo in doubt; 23b) showed a pIC50 against Glucocorticoid receptor [1] of 7.40. In the case of `Cc1noc(=O)c2ccc(NC(=O)C(O)(CC3CCCc4ccc(F)cc43)C(F)(F)F)cc12` (stereo not given), the pIC50 was 7.80 on Glucocorticoid receptor [1] and less than 6.00 against Glucocorticoid receptor [2].

`Cc1noc(=O)c2ccc(NC(=O)C(O)(CC3CCCc4ccccc43)C(F)(F)F)cc12` (stereo not given): the pIC50 on Glucocorticoid receptor [1] was 8.10; against Glucocorticoid receptor [2] it was less than 6.00. Turning to `Cc1noc(=O)c2ccc(NC(=O)C(O)(CC3(C)CCCc4ccccc43)C(F)(F)F)cc12` (stereo in doubt; 35c), the pIC50 against Glucocorticoid receptor [1] is 6.60; at Glucocorticoid receptor [2], less than 5.00. Consider `Cc1noc(=O)c2ccc(NC(=O)C(O)(CC3CCCc4cc([N+](=O)[O-])ccc43)C(F)(F)F)cc12` (stereo not given), for which the pIC50 was 6.90 on Glucocorticoid receptor [1] and less than 6.00 at Glucocorticoid receptor [2].

Values taken from ChEMBL document CHEMBL1138886, “Dissociated nonsteroidal glucocorticoid receptor modulators; discovery of the agonist trigger in a tetrahydronaphthalene-benzoxazine series” (J Med Chem, 2006).
